According to ChEMBL document CHEMBL1201862, “PubChem BioAssay data set” (2004):
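Growth conditions: 96-well plates. Treatment: test compound, 48 hours, 5 concentrations. Analysis: linear interpolation between bracketing concentrations; unreached endpoints set to highest concentration. GI50: concentration for 50% inhibition of growth.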 Active and inactive are the calls of the source. Cut-off read from the data, not from the text of the source: active = GI50 up to about 1.1 µM and inactive = higher.

Columns and labels:
Experiment in all cases: NCI-60 cell line screen, 48 h
COLO 205 = system: COLO 205
EKVX = system: EKVX
HCC 2998 = system: HCC 2998
HL-60 = system: HL-60
HT-29 = system: HT-29
MCF7 = system: MCF7
MDA-MB-231 = system: MDA-MB-231
Malme-3M = system: Malme-3M
NCI-H23 = system: NCI-H23
OVCAR-4 = system: OVCAR-4
OVCAR-8 = system: OVCAR-8
RPMI-8226 = system: RPMI-8226
SF-539 = system: SF-539
SK-MEL-28 = system: SK-MEL-28
SK-MEL-5 = system: SK-MEL-5
SNB-19 = system: SNB-19
TK-10 = system: TK-10
UACC-62 = system: UACC-62
CAKI-1 = system: CAKI-1
HOP-92 = system: HOP-92

Measured: GI50

CCCC(C)c1c(Cl)nc(Cl)nc1Cl (stereo not drawn)
inactive: COLO 205 4.4 µM | EKVX 18.3 µM | HCC 2998 5.18 µM | HL-60 2.1 µM | HT-29 11.4 µM | MCF7 8.55 µM | MDA-MB-231 9.27 µM | Malme-3M 8.45 µM | NCI-H23 3.18 µM | OVCAR-4 17.1 µM | OVCAR-8 19.1 µM | RPMI-8226 5.53 µM | SF-539 5.73 µM | SK-MEL-28 3.52 µM | SK-MEL-5 3.41 µM | SNB-19 18.2 µM | TK-10 20.9 µM | UACC-62 > 10 µM

Cc1ccc(CCCCCOc2ccc(C3=NCCO3)cc2)s1
inactive: CAKI-1 > 100 µM | COLO 205 > 100 µM | EKVX > 100 µM | HCC 2998 > 100 µM | HL-60 > 100 µM | HT-29 > 100 µM | MCF7 > 100 µM | MDA-MB-231 > 100 µM | Malme-3M > 100 µM | NCI-H23 > 100 µM | OVCAR-4 > 100 µM | OVCAR-8 > 100 µM | RPMI-8226 > 100 µM | SK-MEL-28 > 100 µM | SK-MEL-5 > 100 µM | SNB-19 > 100 µM | TK-10 > 100 µM | UACC-62 > 100 µM

O=P1(Cc2ccccc2)N(Cc2ccccc2)[C@@H]2CCCC[C@H]2N1Cc1ccccc1
inactive: CAKI-1 10.4 µM | COLO 205 5.77 µM | EKVX 9.62 µM | HCC 2998 8.89 µM | HL-60 4.67 µM | HT-29 5.32 µM | MCF7 6.89 µM | MDA-MB-231 10.6 µM | Malme-3M 17.9 µM | NCI-H23 9.98 µM | OVCAR-4 3.01 µM | OVCAR-8 10 µM | SF-539 17 µM | SK-MEL-28 16.8 µM | SK-MEL-5 1.79 µM | SNB-19 10.6 µM | TK-10 13.5 µM | UACC-62 7.74 µM

Oc1cc(-c2cccc(Br)c2)nc2cc3c(cc12)OCO3
inactive: COLO 205 32 µM | HCC 2998 15.1 µM | HL-60 3.57 µM | HT-29 30.9 µM | MCF7 18.7 µM | MDA-MB-231 10.1 µM | Malme-3M 2.7 µM | NCI-H23 5.38 µM | OVCAR-4 > 30.8 µM | OVCAR-8 4.57 µM | RPMI-8226 15 µM | SF-539 2.19 µM | SK-MEL-28 2.77 µM | SK-MEL-5 1.38 µM | SNB-19 3.37 µM | TK-10 12.9 µM | UACC-62 1.75 µM

C#CCOCC12C=CC(O1)C1C(=O)N(C)C(=O)C12 (stereo not drawn)
inactive: COLO 205 > 100 µM | EKVX > 100 µM | HCC 2998 > 100 µM | HL-60 > 100 µM | HT-29 > 100 µM | MCF7 > 100 µM | MDA-MB-231 > 100 µM | Malme-3M > 100 µM | NCI-H23 > 100 µM | OVCAR-4 > 100 µM | OVCAR-8 > 100 µM | RPMI-8226 > 100 µM | SF-539 > 100 µM | SK-MEL-28 > 100 µM | SK-MEL-5 > 100 µM | SNB-19 > 100 µM | TK-10 > 100 µM | UACC-62 > 100 µM

CCC1CC(=O)N(SCC(N)C(=O)O)C1=O (stereo not drawn)
inactive: CAKI-1 > 100 µM | COLO 205 > 100 µM | EKVX > 100 µM | HL-60 > 100 µM | HOP-92 > 100 µM | HT-29 > 100 µM | MCF7 > 100 µM | MDA-MB-231 > 100 µM | Malme-3M > 100 µM | NCI-H23 > 100 µM | OVCAR-4 > 100 µM | OVCAR-8 > 100 µM | RPMI-8226 > 100 µM | SF-539 > 100 µM | SK-MEL-28 > 100 µM | SK-MEL-5 > 100 µM | SNB-19 > 100 µM | TK-10 > 100 µM | UACC-62 > 100 µM
